This experiment concerns the target T1, RXR receptor (Homo sapiens, UniProt P19793).
T1 construct: expressed in transfected cells
T1 sequence (P19793 1-462): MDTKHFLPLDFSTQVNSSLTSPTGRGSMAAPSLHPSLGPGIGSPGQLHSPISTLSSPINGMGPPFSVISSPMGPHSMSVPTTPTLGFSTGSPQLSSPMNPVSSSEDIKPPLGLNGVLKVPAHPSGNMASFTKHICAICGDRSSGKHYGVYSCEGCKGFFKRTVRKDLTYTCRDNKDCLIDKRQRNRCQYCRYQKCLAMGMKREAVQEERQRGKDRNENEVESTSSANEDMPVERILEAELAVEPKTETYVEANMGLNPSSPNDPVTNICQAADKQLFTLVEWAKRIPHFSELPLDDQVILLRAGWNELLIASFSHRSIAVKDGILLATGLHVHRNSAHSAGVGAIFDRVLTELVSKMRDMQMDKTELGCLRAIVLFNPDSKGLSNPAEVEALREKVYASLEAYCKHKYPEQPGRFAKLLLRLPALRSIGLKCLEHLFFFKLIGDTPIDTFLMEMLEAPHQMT
Nature of the experiment: RXR activation (transient transfection reporter assay). In kind it is cell-based. The conditions noted are these: 1 μM compared to 9-cis-RA at equal concentration. An excerpt:
RXR agonists activate the RXR receptor when interacting with RXR by binding to its binding pocket. This activation can be independent of whether the agonist, while interacting with portions of the ligand binding pocket, also interacts with side pocket 1. Activation, also often referred to as transcriptional activation, of RXR by agonists can be measured by a number of commonly used assays where the effect of the agonist ligand interacting with the RXR ligand binding pocket is to stimulate or induce transcription of a gene or genes in a cell. In one particular embodiment, transient transfection experiments (as described essentially by Zhang, et al. (1996) Negative Regulation of Peroxisome Proliferator—Activated Receptor—γ Gene Expression Contributes to the Antiadipogenic effects of Tumor Necrosis Factor—α. Mol. Endo. 10:1457-1456) can be used. In these cases, full length RXR proteins are expressed in living cells. Alternatively, hybrid proteins that contain a portion of another DNA binding domain and the ligand binding portion of the human RXRα receptor can be expressed in living cells instead of the full length RXR protein. Such hybrid proteins can bind to and activate specific reporter genes introduced into the same living cell and activation of such reporter genes is measured. The assays described here are very commonly used today by people skilled in the art of molecular biology experimenting. Transient transection assays are often used instead of ligand binding assays and can serve to measure or estimate an affinity of an RXR agonist ligand for RXR protein. The effective dose fifty (ED50, also called EC50) is the concentration of the ligand necessary to lead to one half maximal activation of the reporter gene in a living cell. Compounds that show 60% of the activity of the agonist 9-cis retenoic acid at 10^−6 M can be considered an RXR activator/agonist. Compounds which show 70% 80% 90% of the activity of the agonist 9-cis retinoic acid are also provided.
To confirm that the computer modeling/design of a compound does result in an RXR activator or RXR agonist, i.e. a compound that leads to RXR activation or transcriptional activation, commonly used assays can be applied, where the effect of the agonist or activator, interacting with the RXR ligand binding pocket is to stimulate or induce transcription of a gene or genes in a cell. In one particular embodiment, transient transfection experiments (as described essentially by Zhang, et al. (1996) Negative Regulation of Peroxisome Proliferator—Activated Receptor—γ Gene Expression Contributes to the Antiadipogenic effects of Tumor Necrosis Factor—α. Mol. Endo. 10:1457-1456) can be used. In these cases, full length RXR proteins are expressed in living cells. Alternatively, hybrid proteins that contain a portion of another DNA, binding domain and the ligand binding portion of the human RXRα receptor can be expressed in living cells instead of the fall length RXR protein. Such hybrid proteins can bind to and activate specific reporter genes introduced into the same living cell and activation of such reporter genes is measured (Brand, A. H. & Perrimon, 1993, Development, 118:401-415; Moya-Camarena, S. Y. et.al., 1999, J. Lipid Res., 40:1426:1433; Yi, Y. W. et al., 2000, Biochem. Biophys. Res. Commun., 272:193-198, each are herein incorporated by reference at least for material related to reporter assays). These assays not only measure binding of the ligand to its target, which could also be measured by an in vitro binding assay, but also measure the agonistic or activator activity of the compound. In such an assay, new compounds are compared to a standard activator like compound I or the natural agonist of RXR: 9-cis retinoic acid (see Example 7). For instance, all compounds that show at a given concentration at least 60% of the activity of 9-cis retinoic acid can be considered useful activators.
In general terms: A reporter such as luciferase makes a cellular process visible.

For the compound `Cc1cc2c(cc1-c1cc(C=C3SC(=O)NC3=O)ccc1OC(F)(F)F)C(C)(C)CCC2(C)C` [Compound 1], the “RXR Activation” value stood at 110%.

The values are drawn from patent US7265139B2, “RXR activating molecules” (Incyte San Diego Inc., priority 2001, dated 2007).
